# Measured values: paper PMC6268773, “Aminodi(hetero)arylamines in the Thieno[3,2-b]pyridine Series: Synthesis, Effects in Human Tumor Cells Growth, Cell Cycle Analysis, Apoptosis and Evaluation of Toxicity Using Non-Tumor Cells” (Molecules, 2012)
# What was measured:
# [1] = tested on: MCF-7 (breast adenocarcinoma); experiment: SRB cell growth inhibition assay, MCF-7; format: cell-based; conditions: Homo sapiens, MCF7, MCF-7, 48h continuous treatment, mean ± SD, n = 3
# Experimental: (§1) The effects of the aminodi(hetero)arylamines in the growth of four human tumour cell lines (MCF-7, A375-C5, NCI-H460 and HepG2) were evaluated using the SRB assay. Doxorubicin and ellipticine were used as positive controls. Furthermore, to investigate the possible toxicity of the compounds, the in vitro cell growth inhibition assay (SRB) was also performed using porcine liver non-tumor cells (PLP1) established by us.
# (§2) Four human tumor cell lines, MCF-7 (breast adenocarcinoma), A375-C5 (melanoma), NCI-H460 (non-small cell lung cancer) and HepG2 (hepatocellular carcinoma) were used. MCF-7, A375-C5 and HepG2 were obtained from the European Collection of Cell Cultures (ECACC, Salisbury, UK) and NCI-H460 was kindly provided by the National Cancer Institute (NCI, Bethesda, MD, USA). Cells were routinely maintained as adherent cell cultures in RPMI-1640 medium supplemented with 5% FBS (MCF-7, NCI-H460 and A375-C5 cells) or in DMEM supplemented with 10% FBS, 2 mM glutamine, 100 U/mL penicillin and […] streptomycin (HepG2 cells), at 37 °C in a humidified atmosphere containing 5% CO2.
# (§3) The effects of the compounds on the in vitro growth of human tumor cell lines and non-tumor porcine liver primary cells were evaluated according to the procedure adopted by the NCI (USA) in their “In vitro Anticancer Drug Discovery Screen”, using the SRB assay to assess cell growth.
# (§4) For the cell lines, exponentially growing cells were obtained by plating 1.5 × 10^5 cells/mL for MCF-7, 0.75 × 10^5 cells/mL for A375-C5 and NCI-H460, and 5.0 × 10^5 cells/mL for HepG2, followed by 24 h of incubation. For the primary porcine liver cells, cells were incubated in 96-well plates at a density of 5.0 × 10^5 cells/mL, and cultivated in DMEM medium with 10% FBS, 100 U/mL penicillin and […] streptomycin.
# (§5) Following a 24 h period to allow cells to adhere, cells were treated for 48 h with six serial dilutions of each test compound, starting from a maximum concentration of 125 µM. Following the 48 h treatment period, adherent cells were fixed in situ, washed and stained with SRB. The bound stain was solubilized and the absorbance was measured at 492 nm in the case of MCF-7, NCI-H460 and A375-C5 cells and at 515 nm in the case od HepG2 and PLP1 primary cells, in a plate reader (Biotek Instruments Inc., Powerwave XS, Bedfordshire, UK). Dose response curves were obtained and the concentration of the diarylamine that inhibited 50% of the net cell growth (GI50) was calculated as described elsewhere. Doxorubicin and ellipticine were used as positive controls of cell growth inhibition.
# [2] = tested on: A375-C5 (melanoma); experiment: SRB cell growth inhibition assay, A375-C5; format: cell-based; conditions: Homo sapiens, A375-C5, 48h continuous treatment, mean ± SD, n = 3
# Experimental: as §1, §2, §3, §4, §5
# [3] = tested on: NCI-H460 (non-small cell lung cancer); experiment: SRB cell growth inhibition assay, NCI-H460; format: cell-based; conditions: Homo sapiens, NCI-H460, 48h continuous treatment, mean ± SD, n = 3
# Experimental: as §1, §2, §3, §4, §5
# [4] = tested on: HepG2 (hepatocellular carcinoma); experiment: SRB cell growth inhibition assay, HepG2; format: cell-based; conditions: Homo sapiens, HepG2, 48h continuous treatment, mean ± SD, n = 3
# Experimental: as §1, §2, §3, §4, §5
# [5] = SRB toxicity assay in non-tumor porcine liver primary cells; format: cell-based; conditions: pig, porcine liver primary cell culture (PLP1), non-tumor, PLP1 non-tumor porcine liver cells, 48h continuous treatment, SRB, mean ± SD, n = 3
# Experimental: as §1
# (§6) Porcine liver primary cell culture (PLP1) was prepared from freshly harvested porcine liver, obtained from a local slaughter house. Briefly, the liver tissue was rinsed in HBSS solution containing 100 U/mL penicillin, 100 µg/mL streptomycin and divided into 1 × 1 mm^3 explants. Some of these explants were placed in 25 cm^2 tissue flasks in DMEM medium supplemented with 10% FBS, 2 mM nonessential amino acids, 100 U/mL penicillin and […] streptomycin. This cell culture was maintained according to the procedure described previously by us.
# as §3, §4, §5
# [6] = tested on: porcine liver primary cell culture (PLP1); experiment: as above; format: cell-based
# Experimental: as §1, §6, §3, §4, §5
# [7] = tested on: NCI-H460 cells; experiment: Cell cycle distribution profile by flow cytometry (propidium iodide); format: cell-based, human; conditions: NCI-H460, compound at GI50 concentration (1.4 μM), 48 h
# Experimental: NCI-H460 cells were plated in 6-well plates at a final density of 1.5 × 10^5 cells/well and incubated at 37 °C for 24 h. […] As controls, cells were also incubated with medium only (blank) and with the compound’s vehicle (DMSO). Following 48 h of treatment, cells were fixed overnight in ice-cold 70% ethanol and re-suspended in PBS containing 0.1 mg/mL RNase A and 5 µg/mL propidium iodide. Cellular DNA content was analysed by flow cytometry using an Epics XL-MCL Coulter Flow cytometer (Brea, CA, USA) plotting at least 20,000 events per sample, as previously described. The analysis of cell cycle distribution was subsequently performed using the FlowJo 7.2 software (Tree Star, Inc., Ashland, USA) after cell debris and aggregates exclusion.
# [8] = tested on: NCI-H460 cells; experiment: Apoptosis by flow cytometry (Annexin V-FITC/PI); format: cell-based, human; conditions: NCI-H460, compound at GI50 concentration (1.4 μM), 48 h, Annexin V/Propidium iodide
# Experimental: Following 48 h treatment of NCI-H460 cells with compound 3c, as described above, the levels of apoptosis were analysed by flow cytometry using the Human Annexin V-FITC/PI apoptosis kit (Bender MedSystems, Vienna, Austria), according to the manufacturer’s instructions. Flow cytometry was carried out using an Epics XL-MCL Coulter flow cytometer plotting at least 20,000 events per sample, as previously described. The data was analysed using the FlowJo 7.2 software (Tree Star, Inc.).
# [9] = tested on: human tumor cell lines MCF-7, A375-C5, NCI-H460 and HepG2; experiment: SRB cell growth inhibition, all tested human tumor cell lines (summary); format: cell-based; conditions: span over MCF-7, A375-C5, NCI-H460, HepG2, 48 h
# Experimental: as §1, §3
# For the cell lines, exponentially growing cells were obtained by plating 1.5 × 10^5 cells/mL for MCF-7, 0.75 × 10^5 cells/mL for A375-C5 and NCI-H460, and 5.0 × 10^5 cells/mL for HepG2, followed by 24 h of incubation. […]
# Following a 24 h period to allow cells to adhere, cells were treated for 48 h with six serial dilutions of each test compound, starting from a maximum concentration of 125 µM. […] The bound stain was solubilized and the absorbance was measured at 492 nm in the case of MCF-7, NCI-H460 and A375-C5 cells and at 515 nm in the case od HepG2 and PLP1 primary cells, in a plate reader (Biotek Instruments Inc., Powerwave XS, Bedfordshire, UK). […]
SMILES,melting point [°C],GI50 [1] [µM],GI50 [2] [µM],GI50 [3] [µM],GI50 [4] [µM],GI50 at 48 h [5] [µM],further results
"COC(=O)c1sc2cccnc2c1Nc1ccc([N+](=O)[O-])cc1 [2a, Methyl 3-(4-nitrophenylamino)thieno[3,2-b]pyridine-2-carboxylate]",203 to 205,–,–,–,–,–,–
"COC(=O)c1sc2cccnc2c1Nc1ccccc1[N+](=O)[O-] [2b, Methyl 3-(2-nitrophenylamino)thieno[3,2-b]pyridine-2-carboxylate]",202 to 204,–,–,–,–,–,–
"COC(=O)c1sc2cccnc2c1Nc1ccc(OC)cc1[N+](=O)[O-] [2c, Methyl 3-(4-methoxy-2-nitrophenylamino)thieno[3,2-b]pyridine-2-carboxylate]",213 to 214,–,–,–,–,–,–
"COc1cccc2c1C(=O)c1c(O)c3c(c(O)c1C2=O)C[C@@](O)(C(=O)CO)C[C@@H]3O[C@H]1C[C@H](N)[C@H](O)[C@H](C)O1 [Doxorubicin, reference compound]",–,0.04 ± 0.01,0.13 ± 0.01,0.09 ± 0.01,–,–,–
"Cc1c2ccncc2c(C)c2c1[nH]c1ccccc12 [Ellipticine, reference compound]",–,–,–,–,0.8 ± 0.05,4,"GI50 ([6]; PLP1 non-tumor porcine liver cells, 48h continuous treatment, SRB, mean ± SD, n = 3): 4.19 µM"

# Continued, in another order:
melting point [°C],GI50 [1] [µM],GI50 [2] [µM],GI50 [3] [µM],GI50 [4] [µM],SMILES,GI50 at 48 h [5] [µM],further results
–,> 125,112 ± 5,> 125,> 125,"COC(=O)c1sc2cccnc2c1Nc1ccc(N)cc1 [3a, Methyl 3-(4-aminophenylamino)thieno[3,2-b]pyridine-2-carboxylate]",> 125,–
204 to 206,33.8 ± 1.7,26 ± 2.3,31.3 ± 2.9,99.26 ± 0.92,"COC(=O)c1sc2cccnc2c1Nc1ccccc1N [3b, Methyl 3-(2-aminophenylamino)thieno[3,2-b]pyridine-2-carboxylate]",61.3,–
172 to 174,1.4 ± 0.2,1.3 ± 0.1,1.4 ± 0.4,1.63 ± 0.09,"COC(=O)c1sc2cccnc2c1Nc1ccc(OC)cc1N [3c, Methyl 3-(2-amino-4-methoxhyphenylamino)thieno[3,2-b]pyridine-2-carboxylate]",12.5,"toxicity to non-tumor cells (in words) ([6]; PLP1, at the GI50 concentrations found in tumor cell lines / versus ellipticine): did not show toxicity; percentage of cells in the G0/G1 phase of the cell cycle (in words) [7]: significant decrease; % of cells in the sub-G1 peak (in words) ([7]; data not shown): significantly increased; percentage of apoptotic cells [8]: 36.6 ± 4.8%; GI50 [9]: < 2 µM"
